According to ChEMBL document CHEMBL3286390, “Lead optimization of 1,4-azaindoles as antimycobacterial agents” (J Med Chem, 2014):
≈ marks a conversion by molar mass, not a printed value.

What was measured:
[1] = tested on: Mycobacterium tuberculosis; experiment: microbe, parasite or virus in culture; details: H37Rv ATCC 27294, 120 h
Description: Antimicrobial activity against Mycobacterium tuberculosis H37Rv ATCC 27294 assessed as growth inhibition after 5 days by microdilution method

[2] = Inhibition of Mycobacterium smegmatis thioredoxin 6xHis-tagged decaprenylphosphoryl-beta-D-ribose2'-epimerase 1 overexpressed in Escherichia coli rosetta cells using farnesyl-phosphoryl-beta-D-ribofuranose as substrate; design: species or system Mycolicibacterium smegmatis
[3] = tested on: Mycobacterium tuberculosis; assay type: functional, H37Rv ATCC 27294, THP-1; details: Mycobacterium tuberculosis, H37Rv ATCC 27294; read-out: MIC
Phosphodiesterase 6 = experiment: Inhibition of PDE6 (unknown origin); assay type: protein assay, Homo sapiens
[4] = Octanol-water partition coefficient, log D of the compound at pH 7.4 by shake flask method; assay type: physicochemical
[5] = Intrinsic clearance in mouse liver microsomes; assay type: ADME; details: read-out: CLH
[6] = Clearance in po dosed rat; assay type: ADME, organism-based; details: in vivo
[7] = Cmax in BALB/c mouse at 100 mg/kg, po administered as single dose; assay type: ADME, organism-based; design: dose 100 mg/kg, route oral; details: in vivo
[8] = Tmax in BALB/c mouse at 100 mg/kg, po administered as single dose; assay type: ADME, organism-based; design: dose 100 mg/kg, route oral; details: in vivo
[9] = Aqueous solubility of the compound in phosphate buffer at pH 7.4 after 24 hrs by UV-MS analysis; assay type: physicochemical
[10] = AUC (infinity) in BALB/c mouse at 100 mg/kg, po administered as single dose; assay type: ADME, organism-based; design: time infinity, dose 100 mg/kg, route oral; details: plasma
[11] = Unbound fraction in human plasma; assay type: ADME, cell-free
Cytochrome P450 3A4 = Cytochrome P450 3A4 (Homo sapiens, UniProt P08684); experiment: Inhibition of human CYP3A4; assay type: ADME
Cytochrome P450 3A4, sequence (P08684 whole entry): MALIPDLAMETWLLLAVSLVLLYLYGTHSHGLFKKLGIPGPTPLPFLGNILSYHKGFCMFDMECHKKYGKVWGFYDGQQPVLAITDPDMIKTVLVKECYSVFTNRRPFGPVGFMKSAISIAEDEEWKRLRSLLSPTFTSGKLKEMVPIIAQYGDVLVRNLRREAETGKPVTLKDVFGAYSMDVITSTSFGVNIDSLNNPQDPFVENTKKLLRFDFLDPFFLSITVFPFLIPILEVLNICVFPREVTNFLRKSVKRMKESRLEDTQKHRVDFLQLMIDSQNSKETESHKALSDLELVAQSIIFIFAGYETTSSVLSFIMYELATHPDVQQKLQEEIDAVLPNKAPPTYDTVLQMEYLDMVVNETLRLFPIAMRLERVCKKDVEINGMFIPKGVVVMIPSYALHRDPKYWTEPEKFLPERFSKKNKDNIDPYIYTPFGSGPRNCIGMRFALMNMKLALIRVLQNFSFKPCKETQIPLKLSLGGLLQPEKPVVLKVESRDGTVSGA

[12] = Permeability across apical to basolateral side in human Caco2 cells; assay type: ADME, cell-based; details: Caco-2, read-out: permeability
Cytochrome P450 2D6 = Cytochrome P450 2D6 (Homo sapiens, UniProt P10635); experiment: Inhibition of human CYP2D6; assay type: ADME
Cytochrome P450 2D6, sequence (P10635 whole entry): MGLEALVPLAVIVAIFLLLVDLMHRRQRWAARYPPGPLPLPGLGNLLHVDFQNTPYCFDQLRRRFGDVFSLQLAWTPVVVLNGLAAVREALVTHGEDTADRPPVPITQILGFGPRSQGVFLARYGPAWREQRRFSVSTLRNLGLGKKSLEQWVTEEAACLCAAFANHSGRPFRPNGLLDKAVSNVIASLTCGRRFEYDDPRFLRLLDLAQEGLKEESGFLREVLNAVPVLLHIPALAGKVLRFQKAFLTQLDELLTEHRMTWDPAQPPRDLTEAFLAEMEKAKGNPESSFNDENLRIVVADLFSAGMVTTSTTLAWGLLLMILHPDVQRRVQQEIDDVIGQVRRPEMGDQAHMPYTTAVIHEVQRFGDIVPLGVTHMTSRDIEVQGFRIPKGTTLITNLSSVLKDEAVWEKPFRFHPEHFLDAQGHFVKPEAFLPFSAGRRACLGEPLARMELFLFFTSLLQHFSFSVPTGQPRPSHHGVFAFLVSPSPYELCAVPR

[13] = Oral bioavailability in rat; assay type: ADME, organism-based; details: in vivo
Cytochrome P450 2C19 = Cytochrome P450 2C19 (Homo sapiens, UniProt P33261); experiment: Inhibition of human CYP2C19; assay type: ADME
Cytochrome P450 2C19, sequence (P33261 whole entry): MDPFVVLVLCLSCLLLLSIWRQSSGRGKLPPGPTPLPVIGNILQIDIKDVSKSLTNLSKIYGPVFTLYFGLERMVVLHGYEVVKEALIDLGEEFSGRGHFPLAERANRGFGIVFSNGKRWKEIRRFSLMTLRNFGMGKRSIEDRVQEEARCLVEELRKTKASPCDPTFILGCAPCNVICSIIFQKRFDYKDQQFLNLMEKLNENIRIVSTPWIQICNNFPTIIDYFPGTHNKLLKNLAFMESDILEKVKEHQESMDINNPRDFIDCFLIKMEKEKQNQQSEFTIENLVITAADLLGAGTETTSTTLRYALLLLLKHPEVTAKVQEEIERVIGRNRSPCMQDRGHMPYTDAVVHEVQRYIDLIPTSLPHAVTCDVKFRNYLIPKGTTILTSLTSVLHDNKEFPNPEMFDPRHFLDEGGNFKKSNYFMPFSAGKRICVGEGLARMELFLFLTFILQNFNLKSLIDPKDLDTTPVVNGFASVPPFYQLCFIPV

[14] = Half life in BALB/c mouse at 100 mg/kg, po administered as single dose; assay type: ADME, organism-based; design: dose 100 mg/kg, route oral; details: in vivo
Cytochrome P450 2C9 = Cytochrome P450 2C9 (Homo sapiens, UniProt P11712); experiment: Inhibition of human CYP2C9; assay type: ADME
Cytochrome P450 2C9, sequence (P11712 whole entry): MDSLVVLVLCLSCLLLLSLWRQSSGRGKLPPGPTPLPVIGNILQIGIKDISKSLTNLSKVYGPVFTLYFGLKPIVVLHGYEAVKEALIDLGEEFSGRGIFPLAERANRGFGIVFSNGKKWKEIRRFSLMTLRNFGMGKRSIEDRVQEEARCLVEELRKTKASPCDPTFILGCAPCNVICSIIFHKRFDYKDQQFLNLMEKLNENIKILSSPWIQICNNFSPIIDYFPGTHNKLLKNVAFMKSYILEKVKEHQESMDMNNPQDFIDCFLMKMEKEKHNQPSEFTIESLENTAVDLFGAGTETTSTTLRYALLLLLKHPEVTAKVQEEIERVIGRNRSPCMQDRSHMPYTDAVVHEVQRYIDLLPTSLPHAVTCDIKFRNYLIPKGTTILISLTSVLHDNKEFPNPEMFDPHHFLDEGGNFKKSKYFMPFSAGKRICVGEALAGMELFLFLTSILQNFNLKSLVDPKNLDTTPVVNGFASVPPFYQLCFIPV

[15] = Permeability across basolateral to apical side in human Caco2 cells; assay type: ADME, cell-based; details: Caco-2, read-out: permeability
Cytochrome P450 1A2 = target: T1, Cytochrome P450 1A2 (Homo sapiens, UniProt P05177); experiment: Inhibition of human CYP1A2; assay type: ADME
T1 sequence (P05177 whole entry): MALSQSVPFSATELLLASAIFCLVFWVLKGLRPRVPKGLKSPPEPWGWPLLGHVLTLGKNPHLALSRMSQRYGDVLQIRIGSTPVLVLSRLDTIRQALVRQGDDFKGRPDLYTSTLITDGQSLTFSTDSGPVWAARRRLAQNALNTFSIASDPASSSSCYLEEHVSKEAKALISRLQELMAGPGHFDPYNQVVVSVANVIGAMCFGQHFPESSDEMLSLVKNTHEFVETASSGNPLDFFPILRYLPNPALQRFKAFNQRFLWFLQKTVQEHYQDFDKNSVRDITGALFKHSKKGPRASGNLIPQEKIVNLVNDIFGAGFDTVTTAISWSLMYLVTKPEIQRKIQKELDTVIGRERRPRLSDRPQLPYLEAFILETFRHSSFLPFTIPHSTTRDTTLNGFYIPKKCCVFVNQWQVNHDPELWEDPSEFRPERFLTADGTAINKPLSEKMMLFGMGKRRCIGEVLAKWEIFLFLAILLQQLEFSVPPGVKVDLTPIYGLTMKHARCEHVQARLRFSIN

[16] = Cmax in BALB/c mouse at 50 mg/kg, po administered as single dose; assay type: ADME, organism-based; design: dose 50 mg/kg, route oral; details: in vivo
[17] = Half life in BALB/c mouse at 50 mg/kg, po administered as single dose; assay type: ADME, organism-based; design: dose 50 mg/kg, route oral; details: in vivo
[18] = target: Voltage-gated inwardly rectifying potassium channel KCNH2 (Homo sapiens, UniProt Q12809)
Voltage-gated inwardly rectifying potassium channel KCNH2, sequence (Q12809 whole entry): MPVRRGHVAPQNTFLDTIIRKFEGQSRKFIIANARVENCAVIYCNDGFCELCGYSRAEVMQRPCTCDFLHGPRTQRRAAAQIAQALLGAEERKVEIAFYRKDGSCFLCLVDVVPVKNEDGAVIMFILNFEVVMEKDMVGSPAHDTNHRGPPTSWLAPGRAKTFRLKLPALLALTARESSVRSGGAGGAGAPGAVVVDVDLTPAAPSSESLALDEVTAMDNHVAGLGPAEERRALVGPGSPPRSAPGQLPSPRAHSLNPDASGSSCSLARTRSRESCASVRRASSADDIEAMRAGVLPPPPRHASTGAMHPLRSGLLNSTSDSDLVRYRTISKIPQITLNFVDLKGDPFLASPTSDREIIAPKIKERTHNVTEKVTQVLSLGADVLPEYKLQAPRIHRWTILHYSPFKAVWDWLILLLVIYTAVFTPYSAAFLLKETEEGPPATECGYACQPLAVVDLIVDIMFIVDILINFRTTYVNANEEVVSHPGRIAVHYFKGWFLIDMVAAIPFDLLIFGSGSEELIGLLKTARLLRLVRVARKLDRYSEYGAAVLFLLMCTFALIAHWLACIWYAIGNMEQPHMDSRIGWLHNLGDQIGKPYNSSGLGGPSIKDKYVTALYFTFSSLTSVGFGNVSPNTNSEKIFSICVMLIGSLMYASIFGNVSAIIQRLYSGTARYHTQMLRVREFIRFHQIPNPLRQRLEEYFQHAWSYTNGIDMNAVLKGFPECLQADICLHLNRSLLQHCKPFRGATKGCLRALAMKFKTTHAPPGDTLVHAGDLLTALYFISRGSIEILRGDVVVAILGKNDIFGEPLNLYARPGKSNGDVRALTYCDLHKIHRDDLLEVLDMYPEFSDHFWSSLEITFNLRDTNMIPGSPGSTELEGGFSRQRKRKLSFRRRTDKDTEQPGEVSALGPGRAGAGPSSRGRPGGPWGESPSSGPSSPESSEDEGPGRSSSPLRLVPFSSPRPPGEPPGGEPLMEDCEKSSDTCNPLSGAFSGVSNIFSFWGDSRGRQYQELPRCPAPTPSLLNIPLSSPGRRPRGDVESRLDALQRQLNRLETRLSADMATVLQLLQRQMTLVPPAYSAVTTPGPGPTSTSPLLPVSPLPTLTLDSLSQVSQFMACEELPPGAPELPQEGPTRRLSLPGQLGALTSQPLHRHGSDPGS

[19] = Tmax in BALB/c mouse at 50 mg/kg, po administered as single dose; assay type: ADME, organism-based; design: dose 50 mg/kg, route oral; details: in vivo
[20] = AUC (infinity) in BALB/c mouse at 50 mg/kg, po administered as single dose; assay type: ADME, organism-based; design: dose 50 mg/kg, route oral, time infinity; details: plasma

CO[C@H]1/C=C/O[C@@]2(C)Oc3c(C)c(O)c4c(O)c(cc(O)c4c3C2=O)NC(=O)/C(C)=C\C=C\[C@H](C)[C@H](O)[C@@H](C)[C@@H](O)[C@@H](C)[C@H](OC(C)=O)[C@@H]1C [RIFAMYCIN]
MIC [1]: 0.004 µM (≈ 0.00279 µg/mL)

COc1ncnc(Cn2cc(C(=O)NCCF)c3ncc(C(F)(F)F)cc32)c1C
IC50 [2]: 0.2 µM
MIC [3]: > 200 µM

COc1ncc(F)cc1Cn1cc(C(=O)NC[C@H](C)F)c2ncc(C)cc21
IC50 [2]: 0.004 µM
IC50 (Phosphodiesterase 6): > 100 µM
MIC [3]: < 0.39 µM

COc1c(N2C[C@@H]3CCCN[C@@H]3C2)c(F)cc2c(=O)c(C(=O)O)cn(C3CC3)c12 [MOXIFLOXACIN]
MIC [1]: 0.125 µM (≈ 0.0502 µg/mL)

COc1cnc2c(C(=O)NCC(F)F)cn(Cc3ncnc(N(C)C)c3C)c2c1
IC50 [2]: 0.003 µM
logD [4]: 2.5
microsomal CLint [5]: > 130 µL/min/mg
MIC [3]: < 0.39 µM

Cc1c(Cn2cc(C(=O)NCCF)c3ncccc32)ncnc1N(C)C
IC50 [2]: 0.02 µM
IC50 (Phosphodiesterase 6): > 100 µM

COc1cnc2c(C(=O)NCCF)cn(Cc3ncnc(OC)c3C)c2c1
IC50 [2]: 0.013 µM
logD [4]: 2.5
microsomal CLint [5]: 129 µL/min/mg
MIC [3]: < 0.39 µM

COc1ncnc(Cn2cc(C(=O)NCCF)c3ncc(C4CC4)cc32)c1C
IC50 [2]: 0.013 µM
logD [4]: 3.1
MIC [3]: 3.12 µM (≈ 1.2 µg/mL)

COc1cnc2c(C(=O)NCCO)cn(Cc3ncnc(OC)c3C)c2c1
IC50 [2]: 0.019 µM
CL/F [6]: 12 mL/min/kg
Cmax [7]: 105 µM
Tmax [8]: 30 min
MIC [1]: 1.56 µM (≈ 0.579 µg/mL)
solubility at 24 h [9]: 315 µM (≈ 117 µg/mL)
AUC(0-inf) [10]: 286 µM·h
fraction unbound [11]: 0.17
IC50 (Cytochrome P450 3A4): > 50 µM
logD [4]: 1.6
microsomal CLint [5]: < 24 µL/min/mg
Papp A→B [12]: 11 ×10⁻⁶ cm/s
IC50 (Cytochrome P450 2D6): > 50 µM
bioavailability [13]: 100%
IC50 (Cytochrome P450 2C19): > 50 µM
half-life [14]: 120 min
IC50 (Phosphodiesterase 6): 2 µM
IC50 (Cytochrome P450 2C9): > 50 µM
MIC [3]: 0.78 µM (≈ 0.29 µg/mL)
Papp B→A [15]: 31 ×10⁻⁶ cm/s
IC50 (Cytochrome P450 1A2): > 50 µM

COc1ncnc(Cn2cc(C(=O)NCCO)c3ncc(C)cc32)c1C [TBA-7371]
IC50 [2]: 0.01 µM
CL/F [6]: 27 mL/min/kg
IC50 (Cytochrome P450 3A4): > 50 µM
Cmax [16]: 73 µM
half-life [17]: 42 min
IC50 (Cytochrome P450 2D6): > 50 µM
bioavailability [13]: 100%
IC50 (Cytochrome P450 2C19): > 50 µM
IC50 (Cytochrome P450 2C9): > 50 µM
IC50 [18]: > 33 µM
Tmax [19]: 15 min
IC50 (Cytochrome P450 1A2): > 50 µM
AUC(0-inf) [20]: 62 µM·h

NNC(=O)c1ccncc1 [ISONIAZID]
MIC [1]: 0.312 µM (≈ 0.0428 µg/mL)

COc1ccc(F)cc1Cn1cc(C(=O)NCC2CC2)c2nccc(C)c21
IC50 [2]: 0.012 µM
MIC [3]: 6.25 µM (≈ 2.3 µg/mL)

COc1ncnc(Cn2cc(-c3cnn(C(F)F)c3)c3ncc(C)cc32)c1C
IC50 [2]: 0.019 µM
MIC [3]: < 0.39 µM

Cc1cnc2c(C(=O)NCCO)cn(Cc3ncnc(OC(F)F)c3C)c2c1
IC50 [2]: 0.021 µM
CL/F [6]: 48 mL/min/kg
MIC [1]: 0.78 µM (≈ 0.305 µg/mL)
solubility at 24 h [9]: 68 µM (≈ 26.6 µg/mL)
fraction unbound [11]: 0.3
IC50 (Cytochrome P450 3A4): > 50 µM
logD [4]: 2
microsomal CLint [5]: 26 µL/min/mg
Papp A→B [12]: 13 ×10⁻⁶ cm/s
IC50 (Cytochrome P450 2D6): > 50 µM
bioavailability [13]: 64%
IC50 (Cytochrome P450 2C19): > 50 µM
IC50 (Phosphodiesterase 6): > 100 µM
IC50 (Cytochrome P450 2C9): > 50 µM
MIC [3]: < 0.39 µM
Papp B→A [15]: 23 ×10⁻⁶ cm/s
IC50 (Cytochrome P450 1A2): > 50 µM

Cc1cnc2c(C(=O)NCCF)cn(Cc3nccc(OCC(F)(F)F)c3C)c2c1
IC50 [2]: 0.019 µM
IC50 (Phosphodiesterase 6): > 100 µM
MIC [3]: 1.56 µM (≈ 0.662 µg/mL)

COc1cnc2c(C(=O)NCCO)cn(Cc3ncnc(N(C)C)c3C)c2c1
IC50 [2]: 0.043 µM
CL/F [6]: 16 mL/min/kg
Cmax [7]: 23 µM
Tmax [8]: 18 min
MIC [1]: 0.39 µM (≈ 0.15 µg/mL)
solubility at 24 h [9]: 129 µM (≈ 49.6 µg/mL)
AUC(0-inf) [10]: 57 µM·h
fraction unbound [11]: 0.3
IC50 (Cytochrome P450 3A4): > 50 µM
logD [4]: 1.6
microsomal CLint [5]: 26 µL/min/mg
Papp A→B [12]: 3 ×10⁻⁶ cm/s
IC50 (Cytochrome P450 2D6): > 50 µM
bioavailability [13]: 87%
IC50 (Cytochrome P450 2C19): > 50 µM
half-life [14]: 120 min
IC50 (Phosphodiesterase 6): > 100 µM
IC50 (Cytochrome P450 2C9): > 50 µM
IC50 [18]: > 33 µM
MIC [3]: < 0.39 µM
Papp B→A [15]: 39 ×10⁻⁶ cm/s
IC50 (Cytochrome P450 1A2): > 50 µM
